# Data reported in the supplement of paper PMC9663587.
# Columns and labels:
# [1] = compound: C=CCn1c(=O)c2cnc(Nc3ccc(N4CCN(C)CC4)cc3)nc2n1-c1cccc(C(C)(C)O)n1 [AZD1775]
# [2] = compound: CC(=O)Nc1cccc(-n2c(=O)n(C3CC3)c(=O)c3c(Nc4ccc(I)cc4F)n(C)c(=O)c(C)c32)c1
# [3] = compound: CC(C)Nc1cc(-c2c[nH]c(C(=O)N[C@H](CO)c3cccc(Cl)c3)c2)c(Cl)cn1 [BVD523]
# [4] = compound: CCCCOc1c(C(=O)c2c(F)cc(C)cc2F)c[nH]c2nncc1-2
# [5] = compound: T1, CN(C)C/C=C/C(=O)Nc1ccc(C(=O)N2CCC[C@@H](Nc3ncc(Cl)c(-c4c[nH]c5ccccc45)n3)C2)cc1 [THZ531]
# [6] = compound: T2, CN(C)C/C=C/C(=O)Nc1ccc(C(=O)Nc2cccc(Nc3ncc(Cl)c(-c4c[nH]c5ccccc45)n3)c2)cc1 [THZ1]
# [7] = compound: CN1CCN(CCOc2cc(OC3CCOCC3)c3c(Nc4c(Cl)ccc5c4OCO5)ncnc3c2)CC1 [Saracatinib/AZD0530]
# [8] = compound: CNCc1ccc(-c2[nH]c3cc(F)cc4c3c2CCNC4=O)cc1 [Rucaparib]
# [9] = compound: CO[C@@H](C)Cn1c(=O)n(C)c2cnc3ccc(-c4cncc(C(C)(C)O)c4)cc3c21
# [10] = compound: COc1cc2c(Oc3ccc4[nH]c(C)cc4c3F)ncnc2cc1OCCCN1CCCC1 [Cediranib/AZD2171]
# [11] = compound: COc1ccc2c(c1)[C@]1(C[C@H]1c1ccc3c(/C=C/c4ccc(CN5C[C@@H](C)O[C@@H](C)C5)cc4)n[nH]c3c1)C(=O)N2
# [12] = compound: Cc1nc(NC(=O)N2CCC[C@H]2C(N)=O)sc1-c1ccnc(C(C)(C)C(F)(F)F)c1 [Alpelisib/BYL719]
# [13] = compound: C=CC(=O)Nc1ccc(C(=O)Nc2[nH]nc3c2CN(C(=O)N[C@H](CN(C)C)c2ccccc2)C3(C)C)cc1 [YKL-5-124]; experiment: increase in dead-cell fraction, 72 h; higher = more death;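 note: breast cancer cell lines in 384-well plates, stained with Hoechst plus LIVE/DEAD far red dye and imaged, cells above an LDR intensity threshold counted dead, Hoechst-negative corpses included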
# [14] = compound: CC(=O)c1c(C)c2cnc(Nc3ccc(N4CCN(CCOCCOCCOCCNC(=O)COc5cccc6c5C(=O)N(C5CCC(=O)NC5=O)C6=O)CC4)cn3)nc2n(C2CCCC2)c1=O [BSJ-03-123]; experiment: as above
# [15] = compound: CC(=O)c1c(C)c2cnc(Nc3ccc(N4CCNCC4)cn3)nc2n(C2CCCC2)c1=O; experiment: as above
# [16] = compound: CCOc1cc2ncc(C#N)c(Nc3ccc(OCc4ccccn4)c(Cl)c3)c2cc1NC(=O)/C=C/CN(C)C [Neratinib/HKI272]; experiment: as above
# [17] = compound: CCc1cnn2c(NCc3ccc[n+]([O-])c3)cc(N3CCCC[C@H]3CCO)nc12; experiment: as above
# [18] = compound: CN(C)C(=O)c1cc2cnc(Nc3ccc(N4CCNCC4)cn3)nc2n1C1CCCC1 [LEE011/Ribociclib]; experiment: as above
# [19] = compound: T1, THZ531; experiment: as above
# [20] = compound: T2, THZ1; experiment: as above
# 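Throughout, for GR50, 72 h: breast cancer and non-malignant breast epithelial cell lines, Deep Dye Drop or Dye Drop imaging, nine half-log doses, GR normalized to time-zero plates and DMSO-only controls.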
cell line,measurement,setting,value
MCF10A,"GR50, 72 h",[1],6.21 µM
same,"GR50, 72 h",[2],0.00336 µM
same,"GR50, 72 h",[3],1.28 µM
same,"GR50, 72 h",[4],0.504 µM
same,"GR50, 72 h",[5],0.358 µM
same,"GR50, 72 h",[6],0.0723 µM
same,"GR50, 72 h",[7],4.83 µM
same,"GR50, 72 h",[8],> 10 µM
same,"GR50, 72 h",[9],0.163 µM
same,"GR50, 72 h",[10],9.75 µM
same,"GR50, 72 h",[11],0.00588 µM
same,"GR50, 72 h",[12],> 10 µM
same,increase in dead-cell fraction,[13]; 0.001 µM,0.0412
same,increase in dead-cell fraction,[13]; 0.003162 µM,0.118
same,increase in dead-cell fraction,[13]; 0.01 µM,0.138
same,increase in dead-cell fraction,[13]; 0.03162 µM,0.146
same,increase in dead-cell fraction,[13]; 0.1 µM,0.116
same,increase in dead-cell fraction,[13]; 0.3162 µM,0.149
same,increase in dead-cell fraction,[13]; 1 µM,0.159
same,increase in dead-cell fraction,[13]; 3.162 µM,0.118
same,increase in dead-cell fraction,[13]; 10 µM,0.167
same,increase in dead-cell fraction,[14]; 0.001 µM,0.0008
same,increase in dead-cell fraction,[14]; 0.003162 µM,-0.0013
same,increase in dead-cell fraction,[14]; 0.01 µM,-0.0008
same,increase in dead-cell fraction,[14]; 0.03162 µM,0.0005
same,increase in dead-cell fraction,[14]; 0.1 µM,0.0018
same,increase in dead-cell fraction,[14]; 0.3162 µM,-0.0009
same,increase in dead-cell fraction,[14]; 1 µM,0.0005
same,increase in dead-cell fraction,[14]; 3.162 µM,0.0017
same,increase in dead-cell fraction,[14]; 10 µM,0.153
same,increase in dead-cell fraction,[15]; 0.0003162 µM,0.0006
same,increase in dead-cell fraction,[15]; 0.001 µM,0.0003
same,increase in dead-cell fraction,[15]; 0.003162 µM,-0.0024
same,increase in dead-cell fraction,[15]; 0.01 µM,-0.0041
same,increase in dead-cell fraction,[15]; 0.03162 µM,-0.0059
same,increase in dead-cell fraction,[15]; 0.1 µM,-0.0084
same,increase in dead-cell fraction,[15]; 0.3162 µM,-0.0088
same,increase in dead-cell fraction,[15]; 1 µM,-0.0079
same,increase in dead-cell fraction,[15]; 3.162 µM,-0.005
same,increase in dead-cell fraction,[16]; 0.0003162 µM,-0.0011
same,increase in dead-cell fraction,[16]; 0.001 µM,-0.0018
same,increase in dead-cell fraction,[16]; 0.003162 µM,-0.0008
same,increase in dead-cell fraction,[16]; 0.01 µM,-0.0018
same,increase in dead-cell fraction,[16]; 0.03162 µM,-0.0064
same,increase in dead-cell fraction,[16]; 0.1 µM,-0.004
same,increase in dead-cell fraction,[16]; 0.3162 µM,0.003
same,increase in dead-cell fraction,[16]; 1 µM,0.0444
same,increase in dead-cell fraction,[16]; 3.162 µM,0.164
same,increase in dead-cell fraction,[17]; 0.0001 µM,0.0013
same,increase in dead-cell fraction,[17]; 0.0003162 µM,0.0005
same,increase in dead-cell fraction,[17]; 0.001 µM,0.0001
same,increase in dead-cell fraction,[17]; 0.003162 µM,0.0053
same,increase in dead-cell fraction,[17]; 0.01 µM,0.0077
same,increase in dead-cell fraction,[17]; 0.03162 µM,0.5
same,increase in dead-cell fraction,[17]; 0.1 µM,0.575
same,increase in dead-cell fraction,[17]; 0.3162 µM,0.559
same,increase in dead-cell fraction,[17]; 1 µM,0.523
same,increase in dead-cell fraction,[18]; 0.001 µM,-0.0014
same,increase in dead-cell fraction,[18]; 0.003162 µM,0.0018
same,increase in dead-cell fraction,[18]; 0.01 µM,-0.0007
same,increase in dead-cell fraction,[18]; 0.03162 µM,-0.0008
same,increase in dead-cell fraction,[18]; 0.1 µM,-0.0006
same,increase in dead-cell fraction,[18]; 0.3162 µM,0.0001
same,increase in dead-cell fraction,[18]; 1 µM,-0.0005
same,increase in dead-cell fraction,[18]; 3.162 µM,-0.0003
same,increase in dead-cell fraction,[18]; 10 µM,0.0032
same,increase in dead-cell fraction,[19]; 0.0001 µM,-0.0006
same,increase in dead-cell fraction,[19]; 0.0003162 µM,-0.0007
same,increase in dead-cell fraction,[19]; 0.001 µM,0.0006
same,increase in dead-cell fraction,[19]; 0.003162 µM,-0.0006
same,increase in dead-cell fraction,[19]; 0.01 µM,-0.0015
same,increase in dead-cell fraction,[19]; 0.03162 µM,0.0007
same,increase in dead-cell fraction,[19]; 0.1 µM,0.0013
same,increase in dead-cell fraction,[19]; 0.3162 µM,0.0057
same,increase in dead-cell fraction,[19]; 1 µM,0.795
same,increase in dead-cell fraction,[20]; 0.0001 µM,-0.0014
same,increase in dead-cell fraction,[20]; 0.0003162 µM,0.0002
same,increase in dead-cell fraction,[20]; 0.001 µM,0.0012
same,increase in dead-cell fraction,[20]; 0.003162 µM,-0.0011
same,increase in dead-cell fraction,[20]; 0.01 µM,-0.0007
same,increase in dead-cell fraction,[20]; 0.03162 µM,0.0074
same,increase in dead-cell fraction,[20]; 0.1 µM,0.0416
same,increase in dead-cell fraction,[20]; 0.3162 µM,0.0884
same,increase in dead-cell fraction,[20]; 1 µM,0.642
